# Data taken from patent US7863415B2 (The Regents of the University of California, priority 2004, dated 2011).
# “Also recorded” adds a separate entry of the source. Read-outs that look alike come from different tables or passages of the source.
# Columns and labels:
# [1] = target: T1, NHE1 (Homo sapiens, UniProt P19634); assay: NHE1 inhibition: sodium-dependent pHi recovery in BCECF-loaded U87 glial cells after ammonium chloride pre-pulse; format: cell-based; parameters: Sodium-dependent proton extrusion in U87 glial cells and in primary astrocytes is mediated by the type 1 sodium proton exchanger (NHE1); endogenous in cells; host or cells: U87 human glioma cells
# T1 sequence (P19634 whole entry): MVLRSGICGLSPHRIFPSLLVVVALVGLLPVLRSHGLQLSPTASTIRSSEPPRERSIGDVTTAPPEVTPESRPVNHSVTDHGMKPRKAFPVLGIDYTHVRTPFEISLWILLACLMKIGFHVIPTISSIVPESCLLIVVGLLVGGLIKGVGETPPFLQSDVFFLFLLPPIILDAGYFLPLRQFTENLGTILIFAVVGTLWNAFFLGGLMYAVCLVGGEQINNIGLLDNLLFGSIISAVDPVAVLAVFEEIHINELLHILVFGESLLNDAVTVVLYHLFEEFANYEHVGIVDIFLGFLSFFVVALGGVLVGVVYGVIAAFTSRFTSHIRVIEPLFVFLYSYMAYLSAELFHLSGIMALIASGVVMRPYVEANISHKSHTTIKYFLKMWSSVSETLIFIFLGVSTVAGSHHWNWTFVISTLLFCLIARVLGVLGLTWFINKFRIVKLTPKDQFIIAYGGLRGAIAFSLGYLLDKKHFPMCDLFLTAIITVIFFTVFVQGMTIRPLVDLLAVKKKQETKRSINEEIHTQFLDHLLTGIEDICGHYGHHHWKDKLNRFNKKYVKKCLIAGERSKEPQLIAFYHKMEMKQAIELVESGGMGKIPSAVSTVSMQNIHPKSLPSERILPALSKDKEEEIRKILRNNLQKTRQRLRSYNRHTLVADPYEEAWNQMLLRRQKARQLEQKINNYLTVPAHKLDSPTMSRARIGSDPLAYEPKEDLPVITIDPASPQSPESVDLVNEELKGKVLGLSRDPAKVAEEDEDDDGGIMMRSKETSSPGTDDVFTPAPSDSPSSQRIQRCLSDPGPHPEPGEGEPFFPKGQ
# Experimental: Intracellular pH Measurements. U87 glial cells were grown on glass coverslips and incubated for 30 minutes at 37° C. with the pH-sensitive dye, 2′,7′-bis(2-carboxyethyl)-5(6)-carboxyfluorescein-AM (BCECF-AM; Molecular Probes, OR). Cells were rinsed with HEPES Ringer buffer twice and maintained at 37° C. for an additional 15 minutes to permit intracellular hydrolysis of the AM ester; trapping BCECF within the cells. Cells on coverslips were placed in a Hitachi F2000 fluorescent spectrophotometer and excited at 440 and 507 nm with fluorescent emissions recorded at 535 nm (Hegde et al., J. Pharmacol. Exp. Ther., 310:67-74 (2004)).
# NHE inhibition by compounds 3a and 3c was evaluated using intracellular pH (pHi) measurements in the U87 human glial cell line (Hegde et al., supra). Cells loaded with BCECF were then acidified using the ammonium chloride pre-pulse method (Roos et al., Physiol Rev, 61:296-434 (1981)). The subsequent sodium-dependent recovery of pHi by these cells in the absence of bicarbonate was monitored using a spectrofluorometer. Sodium-dependent proton extrusion in U87 glial cells and in primary astrocytes is mediated by the type 1 sodium proton exchanger (NHE1) (McLean et al., supra; Hegde et al., supra) and was monitored in the presence or absence of compound 3a or 3c.
# IC50 drug determinations for NHE1. This method utilizes spectrofluorometric measurements of [H^+]i as described above. The ammonium chloride prepulse method can be used to acidify cells in the presence of HR that is sodium-substituted with NMDG. Perfusion of the acidified cells with HR that contains sodium causes activation of NHE1 that is inhibited in a concentration-dependent fashion as described in McLean et al., supra.
# [2] = Neuropathological and neurobehavioral effects of intracerebral/intrathecal amiloride infusion in rats
# Experimental: Rats were subjected to a “probe” trial following the last acquisition trial in MWM assessment following tumor and drug administration. The hidden platform was removed and the rat was allowed to swim for 60 seconds. The duration of time spent in the “target” quadrant (formerly containing the platform) was recorded.
# [3] = test system: intracerebral U87 glioma xenografts; assay: Intracerebral U87 glioma xenografts in athymic rats, amiloride infusion by Alzet pump, tumor volume by NMR and histology; format: in vivo, rat; conditions: for Doubling time, day postimplant 10: before drug infusion (day 12-17); for Doubling time, day postimplant 12 / Doubling time, day postimplant 15 / Doubling time, day postimplant 17: drug infusion day 12-17
# Experimental: U87 glioma cells were stereotaxically implanted into the corpus striatum of brains of athymic (i.e., T-cell deficient) rats and characterized as an in vivo treatment model. Nissl-stained coronal sections were used to calculate tumor volumes from day 4 to day 28 post-implantation. T1-weighted NMR images were acquired from a separate set of animals to serially measure tumor volumes of intracerebral U87 glioma xenografts.
# BrdU was injected intraperitoneally 3 h prior to perfusion fixation with paraformaldehyde in deeply anesthetized animals.
# [4] = test system: U87 glioma cells
# [5] = test system: NHE1 and NCX; conditions: NHE1 and NCX inhibitors from the literature; cited from earlier work
# [6] = test system: astrocytes; format: cell-based; conditions: amiloride ≧500 μM, 48-72 hours
# Excerpt: Cell culture. The five human glioma cell lines can be obtained from the American Tissue Culture Collection (ATCC). Primary cultures of rat astrocytes can be isolated from the cerebral cortex of neonatal rats (0-1 day old). For measurements of [H^+]i, [Ca^2+]i, and [Na^+]i, cells can be grown on glass coverslips coated with rat tail collagen type I.
# [7] = test system: U87 cells; assay: Intracellular translocation into U87 cells by fluorescence microscopy; conditions: 50 μM; 90 and 180 min; 380 nm excitation, 510 nm emission
# Excerpt: Fluorescence Microscopy. […] Excitation light was provided by a xenon arc lamp coupled to the Polychrome IV scanning monochromator (Till Photonics; Grafelfing, Germany) that alternately excites with different wavelengths. Excitation light was delivered by fiber optics to cells through the epifluorescence port of a Nikon E600 microscope coupled to a Nikon Fluor 60× water immersion lens. The detector was an Orca II-ER CCD digital camera (Hamamatsu USA; Bridgewater, N.J.), which is controlled by C-Imaging Simple PCI software (Compix; Cranberry Township, Pa.).
# Intracellular emission intensities were collected in regions of interest (ROI) from an average of 4-8 cells/field using Simple PCI imaging software. […] Images were captured as TIFF files (C-imaging Simple PCI software), and light and fluorescent images of the same field were imported in Photoshop 6.0 and vector graphics added using Illustrator 9.0.1 (Adobe; San Jose, Calif.).
# [8] = target: T2, NHE1 (Rattus norvegicus, UniProt P26431); conditions: read-out: IC50 of amiloride (NHE); primary rat astrocytes; cited from earlier work
# T2 construct: in primary rat astrocytes (6 μM) (McLean et al., supra); host or cells: primary rat astrocytes
# T2 sequence (P26431 whole entry): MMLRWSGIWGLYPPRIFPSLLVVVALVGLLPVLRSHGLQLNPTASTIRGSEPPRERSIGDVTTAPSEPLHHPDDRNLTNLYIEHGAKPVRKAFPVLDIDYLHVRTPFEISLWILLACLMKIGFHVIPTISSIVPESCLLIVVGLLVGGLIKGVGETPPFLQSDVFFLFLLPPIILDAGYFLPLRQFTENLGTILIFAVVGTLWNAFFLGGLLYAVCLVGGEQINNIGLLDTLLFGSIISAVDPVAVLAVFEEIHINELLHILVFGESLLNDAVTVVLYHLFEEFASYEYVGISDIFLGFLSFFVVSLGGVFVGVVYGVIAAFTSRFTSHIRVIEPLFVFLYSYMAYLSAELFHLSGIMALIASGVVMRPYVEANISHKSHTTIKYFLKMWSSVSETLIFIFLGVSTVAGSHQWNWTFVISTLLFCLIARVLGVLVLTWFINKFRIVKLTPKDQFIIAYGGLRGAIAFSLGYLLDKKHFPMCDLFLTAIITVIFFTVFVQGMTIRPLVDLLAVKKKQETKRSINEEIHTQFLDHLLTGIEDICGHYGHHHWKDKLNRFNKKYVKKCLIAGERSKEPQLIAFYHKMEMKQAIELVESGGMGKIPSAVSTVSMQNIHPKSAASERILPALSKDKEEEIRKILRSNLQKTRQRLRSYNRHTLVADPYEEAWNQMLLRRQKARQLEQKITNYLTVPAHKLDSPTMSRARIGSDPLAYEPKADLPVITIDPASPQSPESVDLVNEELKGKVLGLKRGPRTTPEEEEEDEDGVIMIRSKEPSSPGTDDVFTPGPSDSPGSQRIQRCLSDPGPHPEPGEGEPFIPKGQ
# [9] = test system: U87 glioma cells; assay: Glioma cell death, manual cell counts with trypan blue exclusion
# [10] = test system: NCX; conditions: read-out: IC50 for NCX inhibition; cited from earlier work
# [11] = test system: U87 glioma cells; assay: Glioma cell proliferation, manual cell counts with trypan blue; format: cell-based, human; conditions: glioma cells
# Experimental: C(5)-amiloride glycine conjugate (C5am-Gly) inhibits NHE1 in U87 glioma cells and is antiproliferative. […] The inhibitory activity of C5am-Gly against NCX was tested and a systematic log dose screen of C5am-Gly against a panel of glioma cells and primary astrocytes was performed.
# Manual cell counts with dye exclusion assays. Identical concentrations of glioma cells can be plated on 60 mm dishes and grown until 50% confluent. Following drug treatments, media containing floating cells can be collected in suspension. Adherent cells can be rinsed in calcium- and magnesium-free phosphate-buffered saline (PBS-CMF) and removed by incubation with 0.25% v/v trypsin for 5 minutes (37° C.). Cell suspensions can be combined with the floating fraction and centrifuged at 350×g for 5 minutes. The resulting pellet (one per dish) can be resuspended in equal volumes of PBS-CMF with 0.4% trypan blue and/or 500 nM Sytox Green. 10 μL aliquots of the suspension can be plated on a hemocytometer, and cells can be counted 5 minutes after staining. Simultaneous staining of cells with trypan (TB) and Sytox Green (SG) can be visualized by switching between visible light and fluorescein green.
# [12] = test system: U87 glioma cells; conditions: Hegde et al. 2004; cited from earlier work
# [13] = target: T1, NHE1; parameters: host or cells: CHO cell lines; conditions: CHO cell lines, published values; read-out: IC50 of cariporide (NHE); cited from earlier work
# [14] = test system: U373; conditions: cited from earlier work
# [15] = test system: T98G; conditions: cited from earlier work
# [16] = test system: U87; conditions: cited from earlier work
# [17] = test system: A172; conditions: cited from earlier work
# [18] = test system: T98G; conditions: cited from earlier work; remark: listed apart in the source
# [19] = test system: U87; conditions: cited from earlier work; remark: listed apart in the source
# [20] = intrathecal infusion, tumor-implanted rats
# [21] = intracerebral amiloride infusion
smiles,measurement,setting,value
"NC(N)=NC(=O)c1nc(Cl)c(N)nc1N [Amiloride, 3,5-diamino-6-chloro-N-(diaminomethylene)pyrazinecarboxamide]",Reversal of NHE1 inhibition after removal of compound,[1]; U87 cells,slow and incomplete recovery; also recorded: prolonged and an incomplete recovery
same,Neuropathological changes in normal brain cell types,"[2]; Sprague-Dawley rats, 276 pmol/24 h intracerebral, 12 days",not observed; also recorded: no demonstrable neuropathology
same,Balance and fine motor coordination (beam walk),[2]; [20],did not affect
same,Memory in a spatial learning task (probe trial),[2]; [20],did not affect
same,"Doubling time, day postimplant 10",[3]; 10 mM amiloride reservoir,3.07
same,"Doubling time, day postimplant 12",[3]; 10 mM amiloride reservoir,3.40
same,"Doubling time, day postimplant 15",[3]; 10 mM amiloride reservoir,3.99
same,"Doubling time, day postimplant 17",[3]; 10 mM amiloride reservoir,4.44
same,Effect on tumor growth rate,"[3]; 10 mM reservoir, 28 pmol/24 h, 0.14 nmol",did not affect
same,"Doubling time, day postimplant 10",[3]; 100 mM amiloride reservoir,1.23
same,"Doubling time, day postimplant 12",[3]; 100 mM amiloride reservoir,1.98
same,"Doubling time, day postimplant 15",[3]; 100 mM amiloride reservoir,4.58+
same,"Doubling time, day postimplant 17",[3]; 100 mM amiloride reservoir,11.65++
same,Increase of tumor doubling time compared to vehicle-treated animals,"[3]; 100 mM reservoir, 276 pmol/24 h for 5 days, 1.4 nmol total",3 fold
same,Effect on normal brain cell types (histology),[3]; [21],unaffected
same,Glioma cell death in poorly vascularized tumor regions (eosin staining),[3]; [21],necrotic glioma cell death
same,Effect on tumor growth rates,[3]; intracerebral infusion at relatively high doses vs vehicle,significantly slowed
same,Glioma Effect: cytotoxic concentration,[4],≥ 500 µM
same,Rel. Activity,[5],NHE > NCX
same,Killing of astrocytes,[6],not astrocytes
same,Intracellular accumulation in U87 cells,[7],intracellular accumulation; also recorded: rapid cell permeation
same,IC50,[8],6 µM
same,Concentration that killed U87 glioma cells,"[9]; U87 glioma cells, C2am-Gly within 24 h",500 µM
same,Concentration that killed glioma cells,"[9]; glioma cells, amiloride within 48-72 hours",≥ 500 µM
same,IC50,[10],500 µM
same,Glioma Effect: antiproliferative concentration,[11],< 50 µM
CC(C)c1ccc(C(=O)NC(=N)N)cc1S(C)(=O)=O [Cariporide],Relative Potency,[1]; NHE inhibition relative to amiloride = 1,676
same,IC50,"[1]; U87 glial cells, read-out: IC50 of cariporide (NHE inhibition)",0.074 µM
same,Cytotoxicity to glioma cells,[4],cytotoxic
same,Killing of glioma cells by selective NHE inhibitor,[12],do not kill glioma cells
same,IC50,[13],0.03 µM
Cn1nnc2c(C(N)=O)ncn2c1=O [Temozolamide],Temozolamide sensitivity,[14],yes
same,Temozolamide sensitivity,[15],no
same,Temozolamide sensitivity,[16],yes
CN[C@@H]1C[C@H]2O[C@@](C)([C@@H]1OC)n1c3ccccc3c3c4c(c5c6ccccc6n2c5c31)C(=O)NC4 [staurosporine],G1 arrest with staurosporine,[17],yes
same,G1 arrest with staurosporine,[18],yes
same,G1 arrest with staurosporine,[19],yes
